20 compounds from patent US20070219234A1, “Thienopyridine Derivatives” (priority 2004, published 2007) can be followed below.

The subject of one series is ST2 cells. The experiment in a line: Osteoblast differentiation test (alkaline phosphatase activity). It counts as cell-based. The settings on record: Mus musculus, ST-2, 96 h; at 0.03 μg/mL; culturing for four days; control group (0.1% DMSO) = 100%; read-out: alkaline phosphatase activity increase rate. On the procedure:
ST2 cells (available from Institute of Physical and Chemical Research) which are stroma cells derived from mouse marrow were used. In this test, α-MEM medium (available from GIBCO BRL Cat. No. 10370-021) with which 10% (v/v) inactivated fetal bovine serum (available from Hyclone Company, FBS) and 1% (v/v) Penicillin-Streptomycin, Liquid (available from GIBCO BRL Cat. No. 15140-122) are mixed (hereinbelow abbreviated as 10% -FBS-αMEM) was used. Every culture in this test was conducted in a CO2 incubator (37° C., 95% humidity, 5% CO2).
The cells mentioned above were harvested with 2 mL of 0.25% trypsin solution (available from GIBCO BRL Cat. No. 15050-065) and after they were dispersed by adding 10 mL of 10% -FBS-αMEM, the cells were collected by centrifugal separation (25° C., 800 rpm, 5 minutes). A cell suspension containing 40,000 cells/mL was prepared from the collected cells using 10% -FBS-αMEM.
The cell suspension was dispensed to the wells of a 96 well microplate (Falcon company) in an amount of 100 μL per well so as to achieve 4,000 cells/well and cultured for 24 hours. Compounds were dispensed to the wells in final concentrations of 0.01, 0.03, 0.1, 0.3 μg/ml except the following control group. DMSO was dispensed to the wells of the control group in a final concentration of 0.1% (v/v). Alkaline phosphatase (ALP) activity was measured for each group after culturing for four days.
The measurement of ALP activity was performed as follows. That is, after the whole medium was removed from each well of the culturing plate, each well was washed twice by dispensing and removing 100 μL of Dulbecco's phosphate buffer (available from GIBCO BRL Cat. No. 14190-144). Cell lysing solution containing 10 mM MgCl2 and 2%(v/v) TritonX-100 (Sigma company) was prepared and 50 μL/well of the cell lysing solution was dispensed and the mixture was stirred at room temperature for five minutes. An ALP substrate solution containing 50 mM of diethanolamine (Wako Pure Chemical Industries, Ltd. Cat. No. 099-03112) and 20 mM of […] (Wako Pure Chemical Industries, Ltd. Cat. No. 147-02343) was prepared and 50 μL/well of the ALP substrate solution was dispensed and after allowing to stand at room temperature for 10 minutes, absorbance was measured using a microplate reader (Bio-rad company). Alkaline phosphatase activity increase rate (%) in the group blended with test compounds was calculated assuming the observed value of the control group of each plate to be 100% and evaluated as the osteoblast differentiation promoting activity.

In series [1] the test system is cells from femurs and tibias of ICR mice. The series can be described thus: Osteoclast formation suppression test (TRAP activity). The settings on record: 20 nM active form vitamin D3; compounds 0.01-0.3 μg/ml; culturing for five days. It counts as cell-based, mouse. The method, then: 18 day-old ICR mice were purchased from Japan SLC, Inc. and used in the following experiments. The mice were sacrificed by cervical dislocation and the right and left femurs and tibias were extracted. After the tissue around the extracted femurs and tibias was removed, they were finely minced with scissors. 10 mL of 15%-FBS-αMEM was added to the minced femurs and tibias and the supernatant was collected after agitation for one minute and filtering with a cell strainer (Becton Dickinson company). A cell suspension containing 500,000 cells/mL was prepared with 15%-FBS-αMEM. The cell suspension was dispensed to the wells of a 96 well microplate (Falcon company) in an amount of 100 μL per well so as to achieve 50,000 cells/well and cultured for 24 hours. Active form vitamin D3 (Sigma company, Cat.No.D1530) was dispensed to the wells in final concentrations of 20 nM. Compounds were dispensed to the wells in final concentrations of 0.01, 0.03, 0.1, 0.3 μg/ml except the following control group. DMSO was dispensed to the wells of the control group in a final concentration of 0.1% (v/v). Tartrate-resistant acid phosphatase (TRAP) activity was measured for each group after culturing for five days.
The measurement of TRAP activity was performed as follows. That is, after the whole medium was removed from each well of the culturing plate, each well was washed twice by dispensing and removing 100 μL of Dulbecco's phosphate buffer (available from GIBCO BRL Cat. No. 14190-144). After retaining with a mixture of acetone-ethanol (1:1) for one minute, the retention liquid was removed and the wells were stained at 37° C. with Leukocyte acid phosphatase kit (Sigma company, Cat. No. 387-A) for 30 minutes. The staining solution was removed, then 100 μL of 10% sodium dodecylsulfate (Wako Pure Chemical Industries, Ltd. Cat. No. 191-07145) was dispensed and the mixture was stirred for five minutes, and then absorbance was measured using a microplate reader (Bio-rad company). TRAP activity decrease rate (%) in the group blended with test compounds was calculated assuming the observed value of the control group of each plate to be 100% and evaluated as the osteoclast formation suppression activity.

Some results are limits rather than exact numbers.

Broadly, the melting point is the temperature of the solid-liquid transition. `NC(=O)c1sc2nccc(N3CC[C@@H]4CCCC[C@@H]4C3)c2c1N` (relative stereo) [Example 29, 3-amino-4-(cis-perhydroisoquinolin-2-yl)thieno[2,3-b]pyridine-2-carboxamide]: the melting point fell in the range of 224 to 226 °C. Further, the activity at 0.03 µg/mL in the series with ST2 cells is over 150%.

As to `NC(=O)c1sc2nccc(N3CCCCC3)c2c1N` [Example 14, 3-amino-4-piperidin-1-ylthieno[2,3-b]pyridine-2-carboxamide], the melting point was 191 to 192 °C. Further, in the series with ST2 cells, the activity at 0.03 µg/mL is over 150%.

As to `CC1CCCN(c2ccnc3sc(C(N)=O)c(N)c23)C1` (stereo not shown) [Example 16, 3-amino-4-(3-methylpiperidin-1-yl)thieno[2,3-b]pyridine-2-carboxamide], the melting point was 201 to 204 °C. Besides, in the series on ST2 cells, the activity at 0.03 µg/mL was over 150%.

`NC(=O)c1sc2nccc(N3CCCC(CO)C3)c2c1N` (stereo not shown) [Example 17, 3-amino-4-[3-(hydroxymethyl)piperidin-1-yl]thieno[2,3-b]pyridine-2-carboxamide] registered a melting point of 125 to 130 °C. In addition, the activity at 0.03 µg/mL in the series with ST2 cells is over 150%.

For `NC(=O)c1sc2nccc(N3CCSCC3)c2c1N` [Example 24, 3-amino-4-thiomorpholin-4-ylthieno[2,3-b]pyridine-2-carboxamide], the melting point lay in the range of 255 to 258 °C. Besides, the activity at 0.03 µg/mL with ST2 cells was over 150%.

`COc1ccc(N2CCCN(c3ccnc4sc(C(N)=O)c(N)c34)CC2)cc1` [Example 58, 3-amino-4-[4-(4-methoxyphenyl)-1,4-diazepan-1-yl]thieno[2,3-b]pyridine-2-carboxamide] had a melting point of 206 to 208 °C. The activity at 0.03 µg/mL in the series on ST2 cells was over 150%.

In turn, `NC(=O)c1sc2nccc(N3CCCN(c4ccc([N+](=O)[O-])cc4)CC3)c2c1N` [Example 59, 3-amino-4-[4-(4-nitrophenyl)-1,4-diazepan-1-yl]thieno[2,3-b]pyridine-2-carboxamide] yielded a melting point of 244 to 248 °C. In the series with ST2 cells, the activity at 0.03 µg/mL was over 150%.

Take `CSc1ccc(N2CCCN(c3ccnc4sc(C(N)=O)c(N)c34)CC2)cc1` [Example 64, 3-amino-4-{4-[4-(methylthio)phenyl]-1,4-diazepan-1-yl}thieno[2,3-b]pyridine-2-carboxamide]: the melting point is 186 to 188 °C. The activity at 0.03 µg/mL in the series on ST2 cells is over 150%.

The compound `Cc1cccc(N2CCCN(c3ccnc4sc(C(N)=O)c(N)c34)CC2)c1` [Example 65, 3-amino-4-[4-(3-toluyl)-1,4-diazepan-1-yl]thieno[2,3-b]pyridine-2-carboxamide] registered a melting point of 209 to 212 °C. Further, in series [1], the “osteoclast formation suppression effect (TRAP activity decrease rate)” value is “excellent osteoclast formation suppression effect”. In addition, in the series with ST2 cells, the activity at 0.03 µg/mL was over 150%.

As to `C[S+]([O-])c1ccc(N2CCCN(c3ccnc4sc(C(N)=O)c(N)c34)CC2)cc1` (stereo not shown) [Example 66, 3-amino-4-{4-[4-(methylsulfinyl)phenyl]-1,4-diazepan-1-yl}thieno[2,3-b]pyridine-2-carboxamide], the melting point is 153 to 157 °C. Besides, the “osteoclast formation suppression effect (TRAP activity decrease rate)” value in series [1] is “excellent osteoclast formation suppression effect”. The activity at 0.03 µg/mL with ST2 cells is over 150%.

On to `COc1cccc(N2CCCN(c3ccnc4sc(C(N)=O)c(N)c34)CC2)c1` [Example 68, 3-amino-4-[4-(3-methoxyphenyl)-1,4-diazepan-1-yl]thieno[2,3-b]pyridine-2-carboxamide], for which the melting point is 193 to 195 °C. Also, in the series with ST2 cells, the activity at 0.03 µg/mL is over 150%.

`NC(=O)c1sc2nccc(N3CCCN(c4ccc5c(c4)OCCO5)CC3)c2c1N` [Example 72, 3-amino-4-[4-(2,3-dihydro-1,4-benzodioxin-6-yl)-1,4-diazepan-1-yl]thieno[2,3-b]pyridine-2-carboxamide] yielded a melting point of 104 to 107 °C. Besides, in series [1], the “osteoclast formation suppression effect (TRAP activity decrease rate)” value is given as “excellent osteoclast formation suppression effect”. Further, the activity at 0.03 µg/mL with ST2 cells was over 150%.

In turn, `CN(C)c1ccc(N2CCCN(c3ccnc4sc(C(N)=O)c(N)c34)CC2)cc1` [Example 74, 3-amino-4-{4-[4-(dimethylamino)phenyl]-1,4-diazepan-1-yl}thieno[2,3-b]pyridine-2-carboxamide] had a melting point of 174 to 176 °C. Moreover, in the series on ST2 cells, the activity at 0.03 µg/mL was over 150%.

For the compound `NC(=O)c1sc2nccc(N3CCCN(c4ccc(F)cc4)CC3)c2c1N` [Example 76, 3-amino-4-[4-(4-fluorophenyl)-1,4-diazepan-1-yl]thieno[2,3-b]pyridine-2-carboxamide], the melting point lay within 203 to 205 °C. Moreover, the activity at 0.03 µg/mL with ST2 cells was over 150%.

`Cc1ccc(N2CCCN(c3ccnc4sc(C(N)=O)c(N)c34)CC2)cc1` [Example 77, 3-amino-4-[4-(4-methylphenyl)-1,4-diazepan-1-yl]thieno[2,3-b]pyridine-2-carboxamide] yielded a melting point of 175 to 176 °C. Further, in the series on ST2 cells, the activity at 0.03 µg/mL was over 150%.

`CCOc1ccc(N2CCCN(c3ccnc4sc(C(N)=O)c(N)c34)CC2)cc1` [Example 83, 3-amino-4-[4-(4-ethoxyphenyl)-1,4-diazepan-1-yl]thieno[2,3-b]pyridine-2-carboxamide] showed a melting point of 181 to 183 °C. The “osteoclast formation suppression effect (TRAP activity decrease rate)” value in series [1] was “excellent osteoclast formation suppression effect”. Besides, the activity at 0.03 µg/mL in the series on ST2 cells was over 150%.

Consider `Cc1ccc(N2CCCN(c3ccnc4sc(C(N)=O)c(N)c34)CC2)cc1C` [Example 84, 3-amino-4-[4-(3,4-dimethylphenyl)-1,4-diazepan-1-yl]thieno[2,3-b]pyridine-2-carboxamide], for which the melting point fell in the range of 195 to 197 °C. In addition, the activity at 0.03 µg/mL in the series with ST2 cells is over 150%.

`CCc1ccc(N2CCCN(c3ccnc4sc(C(N)=O)c(N)c34)CC2)cc1` [Example 93, 3-amino-4-[4-(4-ethylphenyl)-1,4-diazepan-1-yl]thieno[2,3-b]pyridine-2-carboxamide] gave a melting point of 186 to 188 °C. In addition, the activity at 0.03 µg/mL in the series with ST2 cells is over 150%.

Take `NC(=O)c1sc2nccc(N3CCCN(c4cccnc4)CC3)c2c1N` [Example 96, 3-amino-4-(4-pyridin-3-yl-1,4-diazepan-1-yl)thieno[2,3-b]pyridine-2-carboxamide]: in the series on ST2 cells, the activity at 0.03 µg/mL is over 150%.

`COc1ccc(N2CCCN(c3ccnc4sc(C(N)=O)c(N)c34)CC2)cn1` [Example 98, 3-amino-4-[4-(6-methoxypyridin-3-yl)-1,4-diazepan-1-yl]thieno[2,3-b]pyridine-2-carboxamide] registered a melting point of 170 to 172 °C. For the same compound, the activity at 0.03 µg/mL in the series with ST2 cells is over 150%.
